According to PubChem BioAssay (NCI):
Where “and” joins values, the source holds several entries; their conditions need not be identical. Equal values may be shown once.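 Dose response: 5 concentrations. Exposure: 48 h. Format: 96-well plates. Endpoint: linear interpolation; highest concentration if not reached. At the GI50, growth is halved. TGI marks complete inhibition of growth.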

Experiments:
Test in all cases: DTP human tumour cell line panel, 48 h
UACC-62 melanoma = system: UACC-62 melanoma
NCI-H226 lung = system: NCI-H226 lung
CCRF-CEM leukemia = system: CCRF-CEM leukemia
KM12 colon = system: KM12 colon
MDA-MB-435 = system: MDA-MB-435
OVCAR-4 ovarian = system: OVCAR-4 ovarian
OVCAR-3 ovarian = system: OVCAR-3 ovarian
MOLT-4 leukemia = system: MOLT-4 leukemia
SK-OV-3 ovarian = system: SK-OV-3 ovarian
NCI-H460 lung = system: NCI-H460 lung

Compound | GI50 (UACC-62 melanoma) [µM] | TGI (UACC-62 melanoma) [µM] | GI50 (NCI-H226 lung) [µM] | TGI (NCI-H226 lung) [µM] | GI50 (CCRF-CEM leukemia) [µM] | GI50 (KM12 colon) | TGI (KM12 colon) [µM] | GI50 (MDA-MB-435) [µM] | TGI (MDA-MB-435) [µM] | GI50 (OVCAR-4 ovarian) [µM] | TGI (OVCAR-4 ovarian) [µM] | GI50 (OVCAR-3 ovarian) [µM] | TGI (OVCAR-3 ovarian) [µM] | GI50 (MOLT-4 leukemia) [µM] | TGI (MOLT-4 leukemia) [µM] | GI50 (SK-OV-3 ovarian) [µM] | TGI (SK-OV-3 ovarian) [µM] | GI50 (NCI-H460 lung) [µM] | TGI (NCI-H460 lung) [µM] | TGI (CCRF-CEM leukemia) [µM]
CCN(CC)C(=S)[S][Bi]([S]C(=S)N(CC)CC)[S]C(=S)N(CC)CC | 0.252 | 0.806 | 2.07 | 4.18 | 0.0193 | 1.61 µM | 3.1 | 0.984 | 2.2 | 0.165 | 0.31 | 0.0525 | 0.174 | 0.0945 | 2.28 | 1.74 | 3.14 | 1.44 | 3.07 | –
CC#Cc1nc(Nc2cc(C)[nH]n2)c2ccccc2n1 | 2.67 | 11.8 | 2.21 | 11.1 | 4.6 | 4.38 µM and 2.4 µM | 12.4 | 3.18 | 13.3 | 3.46 | > 100 | 3.38 | 12.1 | 5.33 | > 100 | 5.19 | 61.3 | 4.53 | 20.3 | > 100
Cc1c([N+](=O)[O-])oc2ccc3ccccc3c12 | – | > 100 | – | > 100 | – | – | > 100 | – | > 100 | – | > 100 | – | > 100 | – | > 100 | – | > 100 | – | > 100 | > 100
O=c1oc2c(C(F)(F)F)cccc2cc1-c1csc(Nc2ccc(OCCF)cc2)n1 | 0.0507 | > 38.9 | 0.587 | 72.3 | 0.0353 | 0.0375 µM | 17.5 | 0.0324 | > 100 | 0.077 | > 66.7 | 0.0357 | 5.75 | 0.0418 | > 100 | 0.041 | 23.2 | 0.0357 | – | > 69.2
COc1ccc(Cn2cc3c(c2-c2cc(OC)c(OC)c(OC)c2)CCc2cnoc2-3)cc1 | 0.342 | > 23 | 1.58 | > 100 | 0.291 | 0.281 µM | > 24.1 | 0.0404 | 0.208 | 0.768 | > 100 | 0.189 | 0.484 | 0.468 | > 100 | 0.365 | > 100 | 0.332 | 1.88 | > 24.3
CCN(Cc1c(Cl)cccc1Cl)c1ccc(CO)c(Cl)c1 | 0.0406 | 0.741 | 0.0224 | 0.071 | 15 | 13.7 µM | 28.4 | 9.22 | 22.4 | 0.194 | 8.24 | 0.232 | 1.07 | 14.8 | 35.7 | 9.84 | 22.3 | 0.171 | 13.9 | 36.6
C/C(=N\NC(=S)N(C)C)c1ccccn1 | – | 2.38 | 0.0645 | 5.1 | 0.000277 | 0.22 µM | 20 | 0.00401 | 18.5 | – | 10.4 | 0.000474 | – | 0.000297 | 2.12 | – | 0.889 | 0.0214 | 4.09 | 0.232
Cc1ccc(-c2cc(O)c(-c3ccc(C)cc3C)cc2O)c(C)c1 | 4.23 | 19.8 | 3.11 | 19.2 | 3.65 | 8.2 µM | 26.8 | 6.98 | 45.1 | 4.27 | 18.5 | 7.17 | 22.4 | 6.23 | > 100 | 11 | 27.3 | 0.923 | 15.2 | > 100
C[C@@H](Nc1nc(Nc2ccc(F)c(Cl)c2)nc2ccccc12)C1CC1 | 2.68 | 14.3 | 6.37 | 35.9 | 2.25 | 3.18 µM | 14.1 | 3.93 | 15 | 1.73 | 12.9 | 3.21 | 12.7 | 1.73 | 5.38 | 5.36 | 17.3 | 3.12 | 19.3 | 7.12
N#CC1C=Cc2c(ccc3ccccc23)N1C(=O)c1ccccc1 (stereo not drawn) | 0.243 | > 100 | 1.34 | > 100 | 0.149 | 0.141 µM | 3.98 | 0.0383 | 0.664 | 1.47 | > 100 | 0.167 | 0.574 | 0.421 | > 100 | 0.311 | 29.7 | 0.191 | 7.56 | > 69.9
CC(C)=CCCC(C)C1=C(O)C(=O)C(C)=CC1=O (stereo not drawn) | – | 27.9 | – | 47.5 | – | – | 34.6 | – | 43.5 | – | 17.4 | – | 18.3 | – | 5.12 | – | 78.5 | – | > 100 | > 20.5
O=C1OCC2=C1C(c1ccccc1)c1cc3c(cc1N2CCO)OCCO3 (stereo not drawn) | – | > 50 | 10.8 | > 50 | 0.276 | 0.207 µM | 6.19 | 0.113 | 0.32 | 0.587 | > 50 | 0.132 | 0.312 | 0.236 | > 10.4 | 0.348 | 13.4 | 0.193 | 1.96 | > 50
CC(=O)c1cc(O)c2ccccc2c1O | 16.2 | 32.7 | 17.5 | 33.2 | 19.2 | 18.8 µM | 35.1 | 14.5 | 30.7 | 14.2 | 41.6 | 17.7 | 37.5 | 33.6 | 99.4 | > 100 | > 100 | 27 | 76.8 | > 100
O=C1C(Cl)=C(Nc2cccc(O)c2)C(=O)N1Cc1ccc(Cl)cc1Cl | 3.49 | 14.7 | 1.11 | 20.4 | 2.82 | 10.1 µM | 25.2 | 6.72 | 19.5 | 2.9 | 15 | 12.1 | 26.4 | 3.22 | 19.2 | 9.43 | 23.7 | 11.4 | 29.7 | 52.7
Cc1cc(Nc2cc(N)ncn2)c(=O)n2c1C(=O)NC21CCCCC1 | > 100 | > 100 | > 100 | > 100 | > 100 | > 100 µM | > 100 | > 100 | > 100 | > 100 | > 100 | > 100 | > 100 | > 100 | > 100 | 62 | > 100 | > 100 | > 100 | > 100
Cc1cccc(Cc2cnc(NC(=O)CCc3ccc(C)o3)s2)c1 | 0.16 | > 100 | 8.69 | > 100 | 0.234 | 0.16 µM | > 100 | 0.0302 | 0.12 | 1.23 | > 100 | 0.192 | 0.731 | 0.371 | > 100 | 0.419 | > 100 | 0.263 | > 100 | > 100
COc1ccccc1C(=O)N(C)c1ccc(Cl)c(C(=O)OC(C)C)c1 | – | > 100 | – | > 100 | – | – | 68.7 | – | > 100 | – | > 100 | – | > 100 | – | > 100 | – | > 100 | – | > 100 | > 100
COc1ccc2ccc3oc([N+](=O)[O-])cc3c2c1 | 0.157 | 0.355 | 0.296 | 3.22 | 0.193 | 0.417 µM | 2.09 | 0.116 | 0.247 | 0.828 | 5.41 | 0.255 | 0.754 | 0.0745 | > 100 | 0.206 | 0.894 | 0.114 | 0.405 | 10.6
NC(=S)NN=C1CSSC1 | 3.21 | 17.2 | 1.66 | 14.5 | 3.77 | 5.92 µM | 23.5 | 5.79 | 44.7 | 4.32 | 38.7 | 2.54 | 10.5 | 3.75 | 43 | 5.25 | 25.1 | 1.61 | 6.49 | > 100
CCN(c1cc(C#CCN2CCOCC2)cc(C(=O)NCc2c(C)cc(C)[nH]c2=O)c1C)C1CCC(N(C)CCOC)CC1 (stereo not drawn) | > 100 | > 100 | > 100 | > 100 | > 100 | > 100 µM | > 100 | > 100 | > 100 | > 100 | > 100 | > 100 | > 100 | > 100 | > 100 | > 100 | > 100 | > 100 | > 100 | > 100
O=C(O)c1cc2ccccc2c2c1C(=O)c1ccccc1-2 | – | > 100 | – | > 100 | – | – | > 100 | – | > 100 | – | > 100 | – | > 100 | – | > 100 | – | > 100 | – | > 100 | > 100
